From ChEMBL document CHEMBL1201862, “PubChem BioAssay data set” (2004) come the findings set out here.

Some test systems named below: A498; A549; DU-145; HOP-92; HT-29; LOX IMVI; MOLT-4; Malme-3M; NCI-H226; NCI-H460; NCI-H522; PC-3; SF-268; SN12C; SNB-19; SNB-75; SR; SW-620; T47D; UACC-257.
Holding throughout (assay): inhibition of tumour cell growth, NCI panel, 48 h

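All cell lines were grown in 96-well plates and treated with compound for 48 hours. GI50 = concentration required for 50% inhibition of growth.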 The source made the active and inactive calls. Rule as the data show it: active = GI50 up to about 1.1 µM and inactive = higher.

Take `O=S1(=O)c2cnccc2N=C(NCc2cccc3ccccc23)N1c1ccccc1`: the GI50 is > 100 µM (inactive) with A498; > 57.7 µM (inactive) with A549; > 100 µM (inactive) with DU-145; > 41.2 µM (inactive) in the test with HOP-92; > 100 µM (inactive) in the test on HT-29; > 96.8 µM (inactive) with LOX IMVI. Besides, the GI50 in the test with MOLT-4 was 12.2 µM (inactive); with Malme-3M, > 100 µM (inactive); with NCI-H226, > 100 µM (inactive); in the test on NCI-H460, 60.8 µM (inactive); with NCI-H522 it was 30.6 µM (inactive); with PC-3, 30 µM (inactive). Also, the GI50 was > 100 µM (inactive) in the test with SF-268; 27 µM (inactive) in the test on SN12C; > 100 µM (inactive) in the test on SNB-19; > 100 µM (inactive) in the test with SNB-75; > 100 µM (inactive) with SR; > 100 µM (inactive) with SW-620. The GI50 in the test with T47D is 54.7 µM (inactive); with UACC-257, > 100 µM (inactive).

In the case of `O=C1C2=Nc3ccccc3C(O)N2c2ccccc21` (stereo not given), the GI50 was 18.7 µM (inactive) in the test on A498; 32.8 µM (inactive) in the test on A549; 53.3 µM (inactive) with DU-145; > 100 µM (inactive) in the test on HOP-92; 58.2 µM (inactive) in the test on HT-29; 2.96 µM (inactive) with LOX IMVI. Besides, the GI50 with MOLT-4 is > 87.5 µM (inactive); in the test with Malme-3M it was 14.3 µM (inactive); in the test on NCI-H226, 27.8 µM (inactive); with NCI-H460, 20.2 µM (inactive); with NCI-H522, 8.91 µM (inactive); in the test with PC-3 it was > 86.9 µM (inactive). Also, the GI50 was 31.6 µM (inactive) in the test on SF-268; 27.2 µM (inactive) in the test with SN12C; 74.1 µM (inactive) in the test with SNB-19; 23.6 µM (inactive) with SNB-75; 86.5 µM (inactive) with SR; > 100 µM (inactive) in the test on SW-620. Besides, the figures for the GI50 with T47D and in the test on UACC-257 were 37.6 µM (inactive) and 4.09 µM (inactive), respectively.

For the molecule `CC(=O)O[C@@H]1C[C@]2(C(=O)c3ccccc3)C(=O)C(=O)S[C@]12c1ccccc1`, the GI50 is 40.2 µM (inactive) with A498; 55.8 µM (inactive) in the test with A549; 51.8 µM (inactive) in the test with DU-145; 47.8 µM (inactive) with HOP-92; 67.9 µM (inactive) with HT-29; 34.3 µM (inactive) with LOX IMVI. Further, the GI50 in the test on MOLT-4 is 28.4 µM (inactive); with Malme-3M, > 100 µM (inactive); with NCI-H226 it was 52.6 µM (inactive); in the test with NCI-H460, 45.6 µM (inactive); in the test with NCI-H522 it was 29.6 µM (inactive); in the test with PC-3 it was 36.5 µM (inactive). Besides, the GI50 was 34.4 µM (inactive) in the test on SF-268; 35.8 µM (inactive) with SN12C; 39.8 µM (inactive) in the test with SNB-19; 44 µM (inactive) with SNB-75; 32.9 µM (inactive) with SR; 31.6 µM (inactive) in the test with SW-620. The results for the GI50 in the test on T47D and with UACC-257 were 28.3 µM (inactive) and 55.8 µM (inactive), respectively.

With `O=C(O)C1OC(n2cc(F)c(=O)[nH]c2=O)CC1O` (stereo not given), the GI50 is 10.1 µM (inactive) with A498; 2.97 µM (inactive) in the test with A549; 24.3 µM (inactive) with DU-145; 7.13 µM (inactive) in the test with HOP-92; 63.8 µM (inactive) in the test with HT-29; 8.87 µM (inactive) in the test on LOX IMVI. The GI50 with MOLT-4 was 7.73 µM (inactive); in the test with Malme-3M, > 100 µM (inactive); in the test on NCI-H226, > 83.9 µM (inactive); with NCI-H460, 0.447 µM (active); with NCI-H522 it was 25.9 µM (inactive); in the test with PC-3 it was 51.8 µM (inactive). The GI50 in the test with SF-268 is 3.35 µM (inactive); in the test on SN12C, 17.7 µM (inactive); with SNB-19 it was 52.5 µM (inactive); with SNB-75, 6.11 µM (inactive); in the test with SR it was 6.11 µM (inactive); in the test with SW-620 it was > 86.5 µM (inactive). For the same molecule, the GI50 in the test with T47D and in the test on UACC-257 was > 100 µM (inactive) in each case.
